Experiments:
[1] = Stability of Apoxidole-1 in Serum; assay type: in vitro ADME; details: 400 µM in FBS, 37°C, up to 48 h
Method: transparent microplates (UV-STAR®, Greiner AG, AT). Subsequently, absorbance spectra from 250 nm to 550 nm were recorded on the Spark® Multimode Microplate Reader (Tecan, AT).
SKOV-3 cells (1.25 x 10^6 cells/flask) were seeded in two T75 tissue culture flasks and incubated for 24 h prior to addition of 17.6 ng/mL IFN-γ and 10 µM succinylacetone (SA, heme synthesis inhibitor). After 24 h, cells were treated with the compound (C) or DMSO (V, vehicle) for 15 min at 37°C. Cells were detached with trypsin/EDTA and washed thrice in cold PBS after resuspension in cold PBS. C- and V-treated samples were distributed equally into ten tubes each and subjected to heating at different temperatures in the MasterCycler EpGradient S (Eppendorf SE, DE). Afterwards, NP-40 alternative was added to a final concentration of 0.4% (v/v) and cells were lysed by five consecutive freeze/thaw cycles. Soluble fractions were separated from denatured proteins by centrifugation at 100,000 x g and 4°C for 20 min. […]
A truncated version of recombinant human GST-IDO1 (rhIDO1) consisting of amino acids 5-400 of the 403 amino acid-long full-length human IDO1 was expressed in E. coli and purified as published previously.[15] The heme cofactor was released from IDO1 by overnight incubation with 2-mercaptoethanesulfonate (MESNA) as described previously[18] and heme occupancy was determined by UV/Vis spectrophotometry. […]

[2] = biological target: T1, Recombinant human His-IDO1 (rhIDO1) (Homo sapiens, UniProt P14902); test: in vitro Kyn assay (IDO1 enzymatic assay); assay type: biochemical
T1 construct: His; made in house; host or cells: E. coli
T1 sequence (P14902 whole entry): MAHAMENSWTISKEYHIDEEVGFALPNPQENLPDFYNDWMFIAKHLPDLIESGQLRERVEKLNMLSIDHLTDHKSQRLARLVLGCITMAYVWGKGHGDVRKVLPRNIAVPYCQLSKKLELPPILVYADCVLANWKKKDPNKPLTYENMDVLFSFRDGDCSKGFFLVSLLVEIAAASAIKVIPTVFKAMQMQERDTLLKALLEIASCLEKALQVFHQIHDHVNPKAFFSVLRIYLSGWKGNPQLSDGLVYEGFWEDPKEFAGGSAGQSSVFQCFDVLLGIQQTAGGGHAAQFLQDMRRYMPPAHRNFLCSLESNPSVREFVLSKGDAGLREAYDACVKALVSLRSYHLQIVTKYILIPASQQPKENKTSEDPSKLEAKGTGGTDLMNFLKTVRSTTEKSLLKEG
Method: To detect direct inhibition, 1 µM rhIDO1 was incubated with compounds for 40 min at 37°C in 50 mM potassium phosphate buffer (16.9 mM K2HPO4, 33.1 mM, KH2PO4, pH 6.5).
Subsequently, 10 mM ascorbic acid, 10 μM methylene blue, 2 mM L-Trp and 100 μg/mL catalase were added and samples were incubated for 60 min at room temperature or 37°C. Trichloroacetic acid was added to a final concentration of 7% (v/v) and samples were incubated for 30 min at 70°C. Afterwards, an equal volume of freshly prepared 2% (w/v) p-DMAB in glacial acetic acid (Ehrlich reagent) was added prior to measuring absorbance at 492 nm and 650 nm on the Spark® Multimode Microplate Reader (Tecan, AT). To determine the Kyn levels, the absorbance of the Kyn-p-DMAB adduct A492 was subtracted by the background absorbance A650 and normalized to the DMSO control. Data analysis was performed using a non-linear regression curve fit and GraphPad Prism 9.0 (GraphPad Software, Inc, US) to generate dose-response curves and obtain

IDO1 promoter = IDO1 promoter reporter gene assay in HEK293T cells; assay type: cell-based; details: IFN-γ, 48 h
Method: GraphPad Prism 9.0 (GraphPad Software, Inc, US) to generate dose-response curves and obtain […]
IDO1 promoter reporter gene assay
HEK293T cells (25,000 cells/well) were reverse-transfected with pXPG-IDO1[16] (4 µg/96-well plate, kindly provided by Gina M. Doody, Leeds, UK) and pRL-TK (300 ng/96-well plate, Promega, US) using Lipofectamine™ 2000 (Invitrogen, USA) pri or to incubation for 24 h. Afterwards, cells were treated with 50 ng/mL IFN-γ and the compounds for 48 h. Luminescence generated by the Fluc reporter and the control reporter Rluc was measured using the Dual-Glo ® Luciferase Assay System (Promega, US) on the Spark® Multimode Microplate Reader (Tecan, AT). To determine the IDO1 promoter activity, Fluc signals were divided by Rluc signals and normalized to the values of the DMSO control. Data analysis was performed using a non-linear regression curve fit and […]
BxPC-3 cells (30,000 cells/well) were seeded in 96-well plates in Trp-free RPMI 1640 medium and incubated for 48 h prior addition of 50 ng/mL IFN-γ. […]
The supernatant was transferred to a new plate, trichloroacetic acid was added to a final concentration of 7% (v/v) and plates were incubated for 15 min at room temperature. Samples were centrifuged for 10 min at 1800 x g and L-Trp was quantified by HPLC-MS/MS using the LTQ Velos Pro and Dionex HPLC (Thermo Fisher Scientific, US). […]

integrity of the compound in serum [1]: confirmed
IDO1 enzymatic assay activity at 25 °C ([2]; 25 °C): inactive
IDO1 activity after pre-incubation at 37 °C ([2]; holo-IDO1, 40 min at 37 °C): decreased IDO1 activity
Compound: CCOC(=O)C1=CC[C@](C(=O)OC)(c2cc3ccccc3n2C)N(S(=O)(=O)c2ccc(C)cc2)[C@@H]1C(=O)OC(C)(C)C [Compound 3d]
expression of the Fluc reporter under IDO1 promoter (IDO1 promoter): did not reduce the expression of the reporter
